Experimental data: patent publication US20250090540A1, “PI3K-ALPHA INHIBITORS AND METHODS OF USE THEREOF” (Relay Therapeutics, Inc., priority 2021, published 2025)
pIC50: −log10 of the molar value. Read-outs that look alike come from different tables or passages of the source.

Biological target: H1047R PIK3CA enzyme (Homo sapiens, UniProt P42336, H1047R)
Experiment: ADP-Glo Biochemical PIK3CA Kinase Assay
Experimental: Compounds to be assayed were plated in 16 doses of 1:2 serial dilutions (20 nL volume each well) on a 1536-well plate, and the plate warmed to room temperature. PIK3CA enzyme (e.g. H1047R, E542K, E545K, or wild-type) (1 μL of 2 nM solution in Enzyme Assay Buffer (comprising 50 mM HEPES pH 7.4, 50 mM NaCl, 6 mM MgCl2, 5 mM DTT and 0.03% CHAPS)) was added and shaken for 10 seconds and preincubated for 30 minutes. To the well was added 1 μL of 200 μM ATP and 20 μM of diC8-PIP2 in Substrate Assay Buffer (50 mM HEPES pH7.4, 50 mM NaCl, 5 mM DTT and 0.03% CHAPS) to start the reaction, and the plate was shaken for 10 seconds, then spun briefly at 1500 rpm, and then incubated for 60 minutes at room temperature. The reaction was stopped by adding 2 μL of ADP-Glo reagent (Promega), and spinning briefly at 1500 rpm, and then incubating for 40 minutes. ADP-Glo Detection reagent (Promega) was added and the plate spun briefly at 1500 rpm, then incubated for 30 minutes.

[1] = ADP-Glo biochemical PIK3CA kinase assay

H1047R PIK3CA enzyme, sequence (P42336 whole entry H1047R): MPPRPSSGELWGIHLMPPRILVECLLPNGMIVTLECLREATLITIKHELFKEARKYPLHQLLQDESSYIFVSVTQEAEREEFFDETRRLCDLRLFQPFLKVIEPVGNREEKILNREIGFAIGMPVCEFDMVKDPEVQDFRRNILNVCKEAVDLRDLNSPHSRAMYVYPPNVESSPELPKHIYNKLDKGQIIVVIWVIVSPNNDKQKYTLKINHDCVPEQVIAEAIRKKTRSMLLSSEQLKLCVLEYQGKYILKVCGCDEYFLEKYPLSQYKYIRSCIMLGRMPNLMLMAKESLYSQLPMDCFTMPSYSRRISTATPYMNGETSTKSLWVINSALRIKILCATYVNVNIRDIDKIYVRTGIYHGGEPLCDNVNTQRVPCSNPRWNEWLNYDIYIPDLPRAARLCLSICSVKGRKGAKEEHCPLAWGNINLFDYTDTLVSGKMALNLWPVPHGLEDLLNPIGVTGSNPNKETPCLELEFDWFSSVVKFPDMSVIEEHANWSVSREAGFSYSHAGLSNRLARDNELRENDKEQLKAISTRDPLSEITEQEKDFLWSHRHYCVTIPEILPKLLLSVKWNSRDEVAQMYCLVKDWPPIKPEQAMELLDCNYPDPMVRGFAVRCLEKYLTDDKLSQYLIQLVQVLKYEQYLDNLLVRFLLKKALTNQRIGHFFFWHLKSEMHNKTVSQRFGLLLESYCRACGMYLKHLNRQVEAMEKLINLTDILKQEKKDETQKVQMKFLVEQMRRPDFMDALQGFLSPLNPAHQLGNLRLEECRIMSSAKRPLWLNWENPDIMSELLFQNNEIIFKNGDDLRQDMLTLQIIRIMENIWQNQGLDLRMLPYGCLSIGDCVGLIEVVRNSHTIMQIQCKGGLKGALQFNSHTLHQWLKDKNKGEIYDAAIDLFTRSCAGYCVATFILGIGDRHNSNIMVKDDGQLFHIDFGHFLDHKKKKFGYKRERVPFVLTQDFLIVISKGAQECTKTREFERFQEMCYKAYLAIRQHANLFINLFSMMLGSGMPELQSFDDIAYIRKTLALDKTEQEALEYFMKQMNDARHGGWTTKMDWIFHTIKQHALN
H1047R PIK3CA enzyme, sequence (P27986 whole entry partner): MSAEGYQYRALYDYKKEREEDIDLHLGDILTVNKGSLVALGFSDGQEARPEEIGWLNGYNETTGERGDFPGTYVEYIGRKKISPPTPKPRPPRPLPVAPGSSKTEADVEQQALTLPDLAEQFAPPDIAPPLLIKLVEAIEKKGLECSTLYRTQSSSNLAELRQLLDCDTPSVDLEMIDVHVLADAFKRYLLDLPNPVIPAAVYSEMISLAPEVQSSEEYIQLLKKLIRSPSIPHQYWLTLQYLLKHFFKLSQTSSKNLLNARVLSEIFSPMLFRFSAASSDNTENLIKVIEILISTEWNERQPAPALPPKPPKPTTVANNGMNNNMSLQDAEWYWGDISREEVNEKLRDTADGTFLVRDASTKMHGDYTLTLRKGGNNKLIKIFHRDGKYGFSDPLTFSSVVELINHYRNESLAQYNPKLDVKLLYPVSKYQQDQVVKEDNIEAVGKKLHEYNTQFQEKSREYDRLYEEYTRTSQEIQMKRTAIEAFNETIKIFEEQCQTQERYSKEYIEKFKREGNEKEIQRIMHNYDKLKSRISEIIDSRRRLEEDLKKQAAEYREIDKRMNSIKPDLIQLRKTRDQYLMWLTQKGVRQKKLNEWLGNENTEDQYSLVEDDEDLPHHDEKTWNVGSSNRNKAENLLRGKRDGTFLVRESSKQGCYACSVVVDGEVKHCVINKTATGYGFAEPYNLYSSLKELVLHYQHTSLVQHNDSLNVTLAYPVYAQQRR

SMILES	pIC50	pIC50 [1]
Cc1ccccc1N[C@H]1CCN(C(=O)OC(C)(C)C)C[C@H]1C(=O)Nc1cc(F)cc(C(F)(F)F)c1 (racemic) [I-68]	4.00 to 5.00	–
Cc1ccccc1N[C@H]1CCN(C(=O)OC(C)(C)C)C[C@@H]1C(=O)Nc1cc(F)cc(C(F)(F)F)c1 (racemic) [I-156]	4.00 to 5.00	–
CNC(=O)N1CC[C@H](Nc2ccccc2C)[C@H](C(=O)Nc2cc(F)cc(C(F)(F)F)c2)C1 (racemic) [I-203]	4.00 to 5.00	–
Cc1ccccc1N[C@H]1CCN(C(=O)C2(O)CC2)C[C@H]1C(=O)Nc1cc(F)cc(C(F)(F)F)c1 (racemic) [I-227]	4.00 to 5.00	–
Cc1ccccc1N[C@H]1CCN(C(=O)C2(O)CC2)C[C@@H]1C(=O)Nc1cc(F)cc(C(F)(F)F)c1 (racemic) [I-228]	4.00 to 5.00	–
CNC(=O)N1CC[C@@H](Nc2ccccc2C)[C@H](C(=O)Nc2cc(F)cc(C(F)(F)F)c2)C1 (racemic) [I-229]	4.00 to 5.00	–
Cc1ccccc1N[C@H]1CCN(C(=O)CC2CCOCC2)C[C@H]1C(=O)Nc1cc(F)cc(C(F)(F)F)c1 (racemic) [I-251]	4.00 to 5.00	–
Cc1ccccc1N[C@H]1CCN(C2CCC2)C[C@H]1C(=O)Nc1cc(F)cc(C(F)(F)F)c1 (racemic) [I-252]	4.00 to 5.00	–
CNC(=O)c1cnc(N2C[C@H]3C[C@H]3c3ccccc32)c(NC(=O)c2csc3ccccc23)c1 (racemic) [I-253]	5.00 to 6.00	–
Cc1ccccc1N[C@H]1CCN(C(=O)CC2CCOCC2)C[C@@H]1C(=O)Nc1cc(F)cc(C(F)(F)F)c1 (racemic) [I-254]	4.00 to 5.00	–
O=C(NC1CS(=O)(=O)C1)c1cnc(N2C[C@H]3C[C@H]3c3ccccc32)c(NC(=O)c2csc3ccccc23)c1 (racemic) [I-255]	6.00 to 6.30	–
C[C@@H](NC(=O)c1cnc(N2CCCOc3ccccc32)c(NC(=O)c2csc3ccccc23)c1)c1cccnc1 (racemic) [I-278]	5.00 to 6.00	–
CC1CN(c2ncc(C(=O)N[C@H](C)c3cccnc3)cc2NC(=O)c2csc3ccccc23)c2ccccc2O1 (mixture of isomers) [I-336]	5.00 to 6.00	–
CN1CC[C@H](NC(=O)c2cnc(N3CCOc4ccccc43)c(NC(=O)c3csc4ccccc34)c2)C1 (racemic) [I-349]	6.00 to 6.30	–
CNC(=O)c1cnc(N[C@@H]2CCOC2)c(NC(=O)c2cc(F)cc(C(F)(F)F)c2)c1 (racemic) [I-554]	–	5.00 to 6.00

More lines, now with the values ahead:

pIC50	pIC50 [1]	SMILES
–	6.00 to 6.30	CCOC(=O)[C@H]1CC[C@@H](NC(=O)c2cnc(Nc3ccccc3C)c(NC(=O)c3csc4ccccc34)c2)C1 (racemic) [I-653]
–	5.00 to 6.00	CCOC(=O)[C@@H]1CC[C@@H](NC(=O)c2cnc(Nc3ccccc3C)c(NC(=O)c3csc4ccccc34)c2)C1 (racemic) [I-654]
–	5.00 to 6.00	Cc1ccccc1[C@H]1NC(=O)C[C@@H]1C(=O)Nc1cc(F)cc(C(F)(F)F)c1 (racemic) [I-669]
–	6.00 to 6.30	O=C(N[C@H]1CCC[C@H]1N1CCOc2ccccc21)c1cc(F)cc(C(F)(F)F)c1 (racemic) [I-796]
4.00 to 5.00	–	Cc1ccccc1[C@@H]1Nc2ccccc2[C@H]1CNC(=O)c1cc(F)cc(C(F)(F)F)c1 (racemic) [I-808, 3-fluoro-N-(((2R,3S)-2-(o-tolyl)indolin-3-yl)methyl)-5-(trifluoromethyl)benzamide]
4.00 to 5.00	–	CNC(=O)c1cnc(N[C@@H]2CCCC[C@@H]2CO)c(NC(=O)c2cc(F)cc(C(F)(F)F)c2)c1 (racemic) [I-812]
4.00 to 5.00	–	O=C(Nc1cc(-c2ccc3ncnn3c2)cnc1N[C@H]1CCCC[C@H]1CO)c1cc(F)cc(C(F)(F)F)c1 (racemic) [I-817]
4.00 to 5.00	–	O=C1C[C@H](CCO)[C@@H](CNC(=O)c2cc(F)cc(C(F)(F)F)c2)[C@H](c2cc(F)ccc2Cl)N1 (racemic) [I-821]
4.00 to 5.00	–	O=C(N[C@@H]1CCC[C@H](O)[C@H]1c1cc(F)ccc1Cl)c1cc(F)cc(C(F)(F)F)c1 (racemic) [I-823, N-[(1R,2S,3S)-2-(2-chloro-5-fluorophenyl)-3-hydroxycyclohexyl]-3-fluoro-5-(trifluoromethyl)benzamide]
